Data published in ChEMBL document CHEMBL5727068, “Inhibitors of PTP4A3 for the treatment of cancer” (2019).

Target: Protein tyrosine phosphatase type IVA 3 (Homo sapiens, UniProt O75365)
Experiment: In Vitro Biochemical Evaluation: The in vitro biochemical evaluation of all compounds was carried out using recombinant human PTP4A3, overexpressed as a His6-tag fusion protein in E. coli and purified on a metal affinity column. Assays were performed using 6,8-difluoro-4-methylumbelliferyl phosphate (DiFMUP) as an artificial substrate at 25° C. for 30 min in 40 mM Tris-HCl (pH 7.0), 75 mM NaCl, 2 mM EDTA, and 4 mM DTT buffer. […] The fluorescence was measured using a SpectraMax M5 plate reader at 358 nm excitation and 455 nm emission. Fluorescence values were used to calculate the percent inhibition of enzyme activity relative to maximal activity, PTP4A3 in the absence of inhibitor, and maximal inhibition, PTP4A3 in the presence of 2 mM Na3VO4.

Sequence of Protein tyrosine phosphatase type IVA 3 (O75365 whole entry, the tested form may be a part): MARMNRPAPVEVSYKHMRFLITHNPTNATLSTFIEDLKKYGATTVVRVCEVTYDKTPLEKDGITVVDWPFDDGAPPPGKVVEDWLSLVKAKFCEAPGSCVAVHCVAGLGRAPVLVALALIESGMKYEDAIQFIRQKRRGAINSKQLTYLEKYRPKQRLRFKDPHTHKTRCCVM

- IC50: > 250 µM
SMILES: O=c1[nH]c(=O)c2cc(-c3ccccc3)sc2[nH]1
